In patent publication US8722849B2, “Polypeptides” (Novo Nordisk A/S, priority 2011, dated 2014):
Starred links: 1 amine or outer side, 2 acyl side, 3 side chain; linkers in the order of their positions; H or OH if unused. Positions of bridges follow the written chain, without caps; N, C: chain ends. Residues, ends and D or L forms follow the SMILES beside them. Groups on a side chain read outwards from the residue. *: point of attachment. C20 diacid = O=C(O)CCCCCCCCCCCCCCCCCCC(=O)*; C18 diacid = O=C(O)CCCCCCCCCCCCCCCCC(=O)*; γGlu = O=C(O)[C@H](CCC(=O)[*:2])N[*:1]; AEEA = NCCOCCOCC(=O)O

Columns and labels:
food intake = assay: Assay (I) efficacy testing on appetite (food intake), ad libitum fed rat model; type: in vivo, Sprague Dawley (SD) rats; conditions: 3 nmol/kg
Outline: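 Food consumption was logged per animal every hour up to 7 h and again at 24 h (occasionally 48 h) after a single 0.01–3 mg/kg dose, given sc, po or ip at dark-phase onset. Ad libitum fed SD rats, 200–250 g, kept on inverted light/dark cycle; vehicle group included, outliers removed by Grubbs test.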

[1] = target: T1, human amylin receptor (amylin 3(a) receptor: human calcitonin receptor + RAMP-3) (Homo sapiens, UniProt O60896+P30988); assay: Assay (II)a functional CRE-luciferase assay, human amylin receptor; type: cell-based; conditions: Table 2; BHK amylin 3(a)-receptor/CRE-luc cells
T1 construct: expressed in transfected cells; host or cells: BHK570
T1 sequence (P30988 25-474): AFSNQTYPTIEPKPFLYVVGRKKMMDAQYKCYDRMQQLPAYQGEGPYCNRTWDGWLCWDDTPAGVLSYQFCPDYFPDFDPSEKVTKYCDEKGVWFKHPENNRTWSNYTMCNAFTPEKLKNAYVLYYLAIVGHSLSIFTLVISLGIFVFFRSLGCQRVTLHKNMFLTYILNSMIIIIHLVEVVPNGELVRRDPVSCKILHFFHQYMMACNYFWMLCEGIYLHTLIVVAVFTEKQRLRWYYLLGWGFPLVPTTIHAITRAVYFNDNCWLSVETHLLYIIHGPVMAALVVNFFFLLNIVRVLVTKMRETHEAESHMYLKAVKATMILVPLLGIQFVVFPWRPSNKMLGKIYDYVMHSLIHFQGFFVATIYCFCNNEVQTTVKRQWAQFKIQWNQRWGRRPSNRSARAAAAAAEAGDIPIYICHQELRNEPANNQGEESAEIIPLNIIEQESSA
T1 sequence (O60896 24-148 partner): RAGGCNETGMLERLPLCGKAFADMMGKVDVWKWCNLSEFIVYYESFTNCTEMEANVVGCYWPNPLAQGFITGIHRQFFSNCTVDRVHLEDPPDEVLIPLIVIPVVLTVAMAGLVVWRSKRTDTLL

SMILES | Food intake reduction 0-24 h 3 nmol/kg (%) (food intake) | Food intake reduction 24-48 h 3 nmol/kg (%) (food intake) | EC50 [1]
CC[C@H](C)[C@H](NC(=O)[C@@H]1CCCN1C(=O)CNC(=O)[C@H](Cc1ccccc1)NC(=O)[C@H](CC(N)=O)NC(=O)[C@H](CC(N)=O)NC(=O)[C@H](CO)NC(=O)[C@H](CO)NC(=O)[C@H](Cc1c[nH]cn1)NC(=O)[C@H](Cc1c[nH]cn1)NC(=O)[C@H](CC(C)C)NC(=O)[C@H](Cc1ccccc1)NC(=O)[C@H](CCC(=O)O)NC(=O)[C@H](C)NC(=O)[C@H](CC(C)C)NC(=O)[C@H](CCCNC(=N)N)NC(=O)[C@H](CCC(N)=O)NC(=O)[C@@H](NC(=O)[C@H](C)NC(=O)[C@@H]1CSSC[C@H](NC(=O)[C@H](CCCCN)NC(=O)[C@H](CCC(=O)O)NC(=O)CC[C@H](NC(=O)CCCCCCCCCCCCCCCCCCC(=O)O)C(=O)O)C(=O)N[C@@H](CC(N)=O)C(=O)N[C@@H]([C@@H](C)O)C(=O)N[C@@H](C)C(=O)N[C@@H]([C@@H](C)O)C(=O)N1)[C@@H](C)O)C(=O)N[C@@H](CC(C)C)C(=O)N1CCC[C@H]1C(=O)N1CCC[C@H]1C(=O)N[C@H](C(=O)N[C@@H](CC(N)=O)C(=O)N[C@H](C(=O)NCC(=O)N[C@@H](CO)C(=O)N[C@@H](Cc1c[nH]cn1)C(=O)N[C@H](C(=O)N[C@@H](Cc1ccc(O)cc1)C(N)=O)[C@@H](C)O)C(C)C)[C@@H](C)O [Example 56, N-alpha-[(S)-4-Carboxy-4-(19-carboxynonadecanoylamino)butyryl]-Glu-[Glu14,His17,His35]-pramlintide] ({C20 diacid-γGlu}-EKCNTATCATQRLAEFLHHSSNNFGPILPPTNVGSHTY-NH2; disulfide 3-8 (inferred)) | 46% | 21% | 0.299 nM
CC[C@H](C)[C@H](NC(=O)[C@@H]1CCCN1C(=O)CNC(=O)[C@H](Cc1ccccc1)NC(=O)[C@H](CC(N)=O)NC(=O)[C@H](CC(N)=O)NC(=O)[C@H](CO)NC(=O)[C@H](CO)NC(=O)[C@H](Cc1c[nH]cn1)NC(=O)[C@H](CCCNC(=N)N)NC(=O)[C@H](CC(C)C)NC(=O)[C@H](Cc1ccccc1)NC(=O)[C@H](CCC(=O)O)NC(=O)[C@H](C)NC(=O)[C@H](CC(C)C)NC(=O)[C@H](CCCNC(=N)N)NC(=O)[C@H](CCC(N)=O)NC(=O)[C@@H](NC(=O)[C@H](C)NC(=O)[C@@H]1CSSC[C@H](NC(=O)[C@H](CCCCN)NC(=O)[C@H](Cc2c[nH]cn2)NC(=O)CC[C@H](NC(=O)CCCCCCCCCCCCCCCCC(=O)O)C(=O)O)C(=O)N[C@@H](CC(N)=O)C(=O)N[C@@H]([C@@H](C)O)C(=O)N[C@@H](C)C(=O)N[C@@H]([C@@H](C)O)C(=O)N1)[C@@H](C)O)C(=O)N[C@@H](CC(C)C)C(=O)N1CCC[C@H]1C(=O)N1CCC[C@H]1C(=O)N[C@H](C(=O)N[C@@H](CC(N)=O)C(=O)N[C@H](C(=O)NCC(=O)N[C@@H](CO)C(=O)N[C@@H](Cc1c[nH]cn1)C(=O)N[C@H](C(=O)N[C@@H](Cc1ccc(O)cc1)C(N)=O)[C@@H](C)O)C(C)C)[C@@H](C)O [Example 71, N-alpha-[(S)-4-Carboxy-4-(17-carboxyheptadecanoylamino)butyryl]-His-[Glu14,Arg17,His35]-pramlintide] ({C18 diacid-γGlu}-HKCNTATCATQRLAEFLRHSSNNFGPILPPTNVGSHTY-NH2; disulfide 3-8 (inferred); C-terminus assumed) | 10% | 0% | 0.0795 nM
CC[C@H](C)[C@H](NC(=O)[C@H](CCCCNC(=O)COCCOCCNC(=O)COCCOCCNC(=O)CC[C@H](NC(=O)CCCCCCCCCCCCCCCCC(=O)O)C(=O)O)NC(=O)CNC(=O)[C@H](Cc1ccccc1)NC(=O)[C@H](CC(N)=O)NC(=O)[C@H](CC(N)=O)NC(=O)[C@H](CO)NC(=O)[C@H](CO)NC(=O)[C@H](Cc1c[nH]cn1)NC(=O)[C@H](Cc1c[nH]cn1)NC(=O)[C@H](CC(C)C)NC(=O)[C@H](Cc1ccccc1)NC(=O)[C@H](CCC(=O)O)NC(=O)[C@H](C)NC(=O)[C@H](CC(C)C)NC(=O)[C@H](CCCNC(=N)N)NC(=O)[C@H](CCC(N)=O)NC(=O)[C@@H](NC(=O)[C@H](C)NC(=O)[C@@H]1CSSC[C@H](NC(=O)[C@@H](N)CCCCN)C(=O)N[C@@H](CC(N)=O)C(=O)N[C@@H]([C@@H](C)O)C(=O)N[C@@H](C)C(=O)N[C@@H]([C@@H](C)O)C(=O)N1)[C@@H](C)O)C(=O)N[C@@H](CC(C)C)C(=O)N1CCC[C@H]1C(=O)N1CCC[C@H]1C(=O)N[C@H](C(=O)N[C@@H](CC(N)=O)C(=O)N[C@H](C(=O)NCC(=O)N[C@@H](CO)C(=O)N[C@@H](CC(N)=O)C(=O)N[C@H](C(=O)N[C@@H](Cc1ccc(O)cc1)C(N)=O)[C@@H](C)O)C(C)C)[C@@H](C)O [Example 73, N-epsilon25-[2-(2-{2-[2-(2-{2-[(S)-4-Carboxy-4-(17-carboxyheptadecanoylamino)butyrylamino]ethoxy}ethoxy)acetylamino]ethoxy}ethoxy)acetyl]-[Glu14,His17,Lys25]-pramlintide] (H-KCNTATCATQRLAEFLHHSSNNFGK([AEEA-AEEA-γGlu-C18 diacid])ILPPTNVGSNTY-NH2; disulfide 2-7 (inferred); N-terminus and C-terminus assumed) | 29% | 2% | 0.0385 nM
CC[C@H](C)[C@H](NC(=O)[C@@H]1CCCN1C(=O)CNC(=O)[C@H](Cc1ccccc1)NC(=O)[C@H](CC(N)=O)NC(=O)[C@H](CC(N)=O)NC(=O)[C@H](CO)NC(=O)[C@H](CO)NC(=O)[C@H](Cc1c[nH]cn1)NC(=O)[C@H](CCCNC(=N)N)NC(=O)[C@H](CC(C)C)NC(=O)[C@H](Cc1ccccc1)NC(=O)[C@H](CCC(=O)O)NC(=O)[C@H](C)NC(=O)[C@H](CC(C)C)NC(=O)[C@H](CCCNC(=N)N)NC(=O)[C@H](CCC(N)=O)NC(=O)[C@@H](NC(=O)[C@H](C)NC(=O)[C@@H]1CSSC[C@H](NC(=O)[C@H](Cc2c[nH]cn2)NC(=O)CNC(=O)CC[C@H](NC(=O)CCCCCCCCCCCCCCCCCCC(=O)O)C(=O)O)C(=O)N[C@@H](CC(N)=O)C(=O)N[C@@H]([C@@H](C)O)C(=O)N[C@@H](C)C(=O)N[C@@H]([C@@H](C)O)C(=O)N1)[C@@H](C)O)C(=O)N[C@@H](CC(C)C)C(=O)N1CCC[C@H]1C(=O)N1CCC[C@H]1C(=O)N[C@H](C(=O)N[C@@H](CC(N)=O)C(=O)N[C@H](C(=O)NCC(=O)N[C@@H](CO)C(=O)N[C@@H](CC(N)=O)C(=O)N[C@H](C(=O)N1CCC[C@H]1C(N)=O)[C@@H](C)O)C(C)C)[C@@H](C)O [Example 89, N-alpha-[(S)-4-Carboxy-4-(19-carboxynonadecanoylamino)butyryl]-Gly-[His1,Glu14,Arg17,Pro37]-pramlintide] ({C20 diacid-γGlu}-GHCNTATCATQRLAEFLRHSSNNFGPILPPTNVGSNTP-NH2; disulfide 3-8 (inferred)) | 42% | 23% | 0.0255 nM
CC[C@H](C)[C@H](NC(=O)[C@@H]1CCCN1C(=O)CNC(=O)[C@H](Cc1ccccc1)NC(=O)[C@H](CC(N)=O)NC(=O)[C@H](CC(N)=O)NC(=O)[C@H](CO)NC(=O)[C@H](CO)NC(=O)[C@H](Cc1c[nH]cn1)NC(=O)[C@H](Cc1c[nH]cn1)NC(=O)[C@H](CC(C)C)NC(=O)[C@H](Cc1ccccc1)NC(=O)[C@H](CCC(=O)O)NC(=O)[C@H](C)NC(=O)[C@H](CC(C)C)NC(=O)[C@H](CCCNC(=N)N)NC(=O)[C@H](CCC(N)=O)NC(=O)[C@@H](NC(=O)[C@H](C)NC(=O)[C@@H]1CSSC[C@H](NC(=O)[C@H](CCCNC(=N)N)NC(=O)CNC(=O)CC[C@H](NC(=O)CCCCCCCCCCCCCCCCCCC(=O)O)C(=O)O)C(=O)N[C@@H](CC(N)=O)C(=O)N[C@@H]([C@@H](C)O)C(=O)N[C@@H](C)C(=O)N[C@@H]([C@@H](C)O)C(=O)N1)[C@@H](C)O)C(=O)N[C@@H](CC(C)C)C(=O)N1CCC[C@H]1C(=O)N1CCC[C@H]1C(=O)N[C@H](C(=O)N[C@@H](CC(N)=O)C(=O)N[C@H](C(=O)NCC(=O)N[C@@H](CO)C(=O)N[C@@H](CC(N)=O)C(=O)N[C@H](C(=O)N1CCC[C@H]1C(N)=O)[C@@H](C)O)C(C)C)[C@@H](C)O [Example 101, N-alpha-[(S)-4-Carboxy-4-(19-carboxynonadecanoylamino)butyryl]-Gly-[Arg1,Glu14,His17,Pro37]-pramlintide] ({C20 diacid-γGlu}-GRCNTATCATQRLAEFLHHSSNNFGPILPPTNVGSNTP-NH2; disulfide 3-8 (inferred)) | 70% | 90% | 0.0515 nM
